Test results taken from paper PMC3870039 (ACS chemical biology, 2013).

Target: human topoisomerase IIα (Homo sapiens, UniProt P11388)
Assay: competition against DNA cleavage induced by […] 8-methyl-3′-
Format: biochemical

human topoisomerase IIα, sequence (P11388 whole entry): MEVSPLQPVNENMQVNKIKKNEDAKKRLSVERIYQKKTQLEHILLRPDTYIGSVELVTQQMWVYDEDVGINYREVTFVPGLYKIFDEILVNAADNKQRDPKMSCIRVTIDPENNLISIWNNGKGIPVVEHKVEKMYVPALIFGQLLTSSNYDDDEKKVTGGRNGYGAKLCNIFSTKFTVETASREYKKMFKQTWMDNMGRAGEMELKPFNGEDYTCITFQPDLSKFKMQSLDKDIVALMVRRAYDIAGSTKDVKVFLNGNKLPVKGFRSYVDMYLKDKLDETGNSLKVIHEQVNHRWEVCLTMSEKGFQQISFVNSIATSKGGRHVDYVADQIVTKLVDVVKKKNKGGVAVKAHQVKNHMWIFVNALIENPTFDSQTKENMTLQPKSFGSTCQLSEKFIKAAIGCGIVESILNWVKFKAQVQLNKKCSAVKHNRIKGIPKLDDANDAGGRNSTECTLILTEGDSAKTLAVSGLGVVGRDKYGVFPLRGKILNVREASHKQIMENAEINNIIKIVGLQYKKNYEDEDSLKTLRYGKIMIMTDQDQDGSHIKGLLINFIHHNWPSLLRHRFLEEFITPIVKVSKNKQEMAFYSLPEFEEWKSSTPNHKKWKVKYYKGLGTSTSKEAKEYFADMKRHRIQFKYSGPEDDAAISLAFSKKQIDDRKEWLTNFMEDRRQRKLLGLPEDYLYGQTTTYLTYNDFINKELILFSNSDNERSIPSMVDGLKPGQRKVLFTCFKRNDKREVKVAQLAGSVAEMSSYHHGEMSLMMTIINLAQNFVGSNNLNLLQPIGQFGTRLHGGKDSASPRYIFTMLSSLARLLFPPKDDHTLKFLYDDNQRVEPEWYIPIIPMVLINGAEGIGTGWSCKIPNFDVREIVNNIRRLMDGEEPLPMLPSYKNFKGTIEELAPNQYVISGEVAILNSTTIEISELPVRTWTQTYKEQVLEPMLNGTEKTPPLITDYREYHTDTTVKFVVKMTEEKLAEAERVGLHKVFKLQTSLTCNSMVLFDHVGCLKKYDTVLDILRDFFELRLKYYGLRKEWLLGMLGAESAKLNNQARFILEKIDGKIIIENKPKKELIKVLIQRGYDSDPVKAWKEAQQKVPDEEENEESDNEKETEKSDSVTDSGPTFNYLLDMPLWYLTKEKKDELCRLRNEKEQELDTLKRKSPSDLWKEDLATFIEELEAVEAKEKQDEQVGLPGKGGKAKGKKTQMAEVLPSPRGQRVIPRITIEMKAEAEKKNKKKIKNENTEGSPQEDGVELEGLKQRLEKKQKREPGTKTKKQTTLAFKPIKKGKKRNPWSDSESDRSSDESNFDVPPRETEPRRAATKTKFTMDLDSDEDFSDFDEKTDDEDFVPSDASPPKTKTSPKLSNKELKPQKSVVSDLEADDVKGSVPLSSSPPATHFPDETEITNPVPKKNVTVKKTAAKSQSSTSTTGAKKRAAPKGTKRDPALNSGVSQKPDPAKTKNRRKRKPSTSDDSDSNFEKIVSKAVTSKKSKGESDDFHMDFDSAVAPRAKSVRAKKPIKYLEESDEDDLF

SMILES: NCC1CCN(c2cc3c(cc2F)c(=O)c(C(=O)O)cn3C2CC2)C1 (stereo not shown) [8-H-3′-(AM)P-FQ]
- IC50: ~50 µM
